# Measurements: patent US11091434B2, “Type III deiodinase inhibitors and uses thereof” (HADASIT MEDICAL RESEARCH SERVICES AND DEVELOPMENT LTD., priority 2014, dated 2021)
# Entries after “also recorded” stand apart in the source; their conditions may differ.
# What was measured:
# [1] = Deiodination assay: deiodination of T4 by DIO3 mimic compound A; format: biochemical; conditions: for inhibition of the deiodinase activity (deiodination of T4) of DIO3 mimic compound A: 100 mM phosphate buffer pH 7.5, 10 mM DTT, 37° C., rT3 formation by HPLC; for IC50 for inhibiting the DIO3 mimic: mimic used in micromolar concentrations, FIG. 5
# Description: The deiodination of thyroxine by compound A (a DIO3 mimetic; FIGS. 2 and 3) in the presence of various thiourea derivatives was studied. When the commonly used antithyroid drugs such as thiourea derivatives (e.g., 6-n-propyl-2-thiouracil (PTU), 6-methyl-2-thiouracil (MTU) and 1-methyl-3H-imidazole-2-thione or methimazole (MMI)) were used, no inhibition of the deiodinase activity was observed.
# The deiodination reactions were carried out in 100 mM phosphate buffer (pH 7.5) with 10 mM dithiothreitol (DTT) at 37° C. Diselenol (Compound A) was freshly prepared by reducing the corresponding diselenide, with NaBH4 prior to use. The reaction products were analyzed by reverse-phase HPLC (Lichrospher C18 column, 4.6 μm, 150 mm×5 mm) with gradient elution using acetonitrile/ammonium acetate (pH 4.0) as the mobile phase. The formation of rT3 was monitored at λ=275 nm and the amounts of deiodinated products formed in the reactions in the presence or absence of test compounds were calculated by comparing the peak areas.
# [2] = Water solubility (qualitative comparison); format: physicochemical; conditions: compared with PBENZ (compound 4)
# [3] = test system: OVCAR3 cells; test: OVCAR3 cell viability by WST-1 assay; format: cell-based, Human; conditions: OVCAR3, 0.5 μM, 48 h
# Description: (§1) Cell lines: Human ovarian adenocarcinoma cells employed in the study were OVCAR-3 (ATCC HTB-161), A2780 (Sigma Aldrich) and SKOV-3 (ATCC HTB-77). Human normal embryonic kidney cells, HEK 293 (ATCC CRL1573) were used. All cells were cultured in RPMI1640 supplemented with 10% heat-inactivated FBS and antibiotics. Before conducting an experiment, cells were cultured for 24 h in RPMI1640 supplemented with 1.5% heat-inactivated charcoal stripped FBS and antibiotics.
# Viability: WST-1 (Roche; 10% final concentration) was incubated with cells at 37° C. for 2 h and read with a MicroELISA reader at 440 nm.
# (§2) OVCAR3 cells were collected and seeded in 96 well plates (10,000/well). The six compounds were then dissolved in DMSO and added to a final 0.5 μM concentration for 48 h of incubation. After incubation the cells were imaged by light microscopy (FIG. 13B). […] These cells were then examined for cell viability by WST-1 assay (FIG. 13C).
# [4] = test system: OVCAR3 cells; test: OVCAR3 cell density and morphology by light microscopy; format: cell-based, Human; conditions: OVCAR3, 0.5 μM, 48 h
# Description: as §1
# Microscopy: The cells were visualized using a microscope equipped with a camera (model IX71; Olympus) with a 20_/0.50 objective lens and Cell^A (version 3.1) Olympus software imaging.
# as §2
# [5] = Novelty suppressed feeding test (NSFT) after 3 weeks ICV administration; conditions: mice, ICV 3 weeks, compared to vehicle; ANCOVA with brain T3 as covariate
# Description: The intra-cerebroventricular injection was performed via a cannula inserted as follows: first, for the chronic administration of compounds or vehicle, osmotic minipumps (Alzet model 1004 for up to 28 days administration) were employed. Empty minipumps were filled under sterile conditions with 0.1 ml of PBS or with PBS containing either one of the DIO3 inhibitors and then connected to brain infusion kits. The filled minipumps connected to the brain infusion kits were than primed in an incubator at 37° C. before being implanted into the animals. At the surgery itself, each mouse was anaesthetized by intraparenteral (i.p.) injection of anesthesia. The anesthesia solution was prepared as follows: for each 2 ml of solution, 900 μl ketamine plus 100 μl xylazine 2% was supplemented with 1000 μl of 0.9% NaCl saline solution. 70 μl of the anesthesia solution was administered i.p to a 20 gram (about 100 μl for 30 gram) weighing animal. […]
# After the last treatment administration, all food was removed from the cage for 24 hours (water was available ad libitum). […] Time elapsing from the introduction of the animal into the arena until it commences eating (latency to feed), total distance move, velocity and time spent in the arena periphery (lateral 10 cm on each side) and center were recorded. […] The mean of the two ratings was calculated and used for the statistical analysis.
# [6] = Serum and brain thyroid hormone levels after 3 weeks ICV administration by osmotic minipumps; format: in vivo, BALB/c mice; conditions: mice; for change in brain free T3 levels (in words): one sided non-paired t test; for Serum Free T3, Mean / Serum Free T4, Mean / Brain Free T3, Mean / Brain Free T4, Mean: ICV by osmotic minipump for 3 weeks, IOP 2 mg/kg, ITYR 5 mg/kg; for Serum Free T3, Mean: vehicle 14.45; for Serum Free T4, Mean: vehicle 36.05; for Brain Free T3, Mean: vehicle 72.74; for Brain Free T4, Mean: vehicle 250.54
# Description: Deaths were related to the surgical procedure.
# At the end of the tests, animals were anesthetized with veterinary Pental (13.333 mg/kg) and cardiac blood was drawn for peripheral T3 (triiodothyronine) and T4 (thyroxine) levels. Brains were harvested for evaluating brain T3, T4 levels. Hormone levels in the sera and brains were measured by SunLong Biotech Mouse Ultrasensitivity total and free T3 and T4 ELISA Kits, employing producing a standard curve followed by actual measurement, in which OD levels obtained by spectrophotometer were converted, using the standard curve, to pg/ml values.
# [7] = target: T1, DIO1 (Homo sapiens, UniProt P49895); conditions: cited from earlier work
# T1 sequence (P49895 1-249): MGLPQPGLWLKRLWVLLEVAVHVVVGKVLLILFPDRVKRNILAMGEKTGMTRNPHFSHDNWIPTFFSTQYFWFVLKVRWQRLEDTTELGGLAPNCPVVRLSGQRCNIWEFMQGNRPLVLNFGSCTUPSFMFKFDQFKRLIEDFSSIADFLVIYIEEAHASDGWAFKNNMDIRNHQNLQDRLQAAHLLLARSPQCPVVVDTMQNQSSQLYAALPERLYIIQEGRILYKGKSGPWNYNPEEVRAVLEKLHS
# [8] = target: DIO2 (Homo sapiens, UniProt Q92813); conditions: cited from earlier work
# Sequence of DIO2 (Q92813 whole entry, species assumed): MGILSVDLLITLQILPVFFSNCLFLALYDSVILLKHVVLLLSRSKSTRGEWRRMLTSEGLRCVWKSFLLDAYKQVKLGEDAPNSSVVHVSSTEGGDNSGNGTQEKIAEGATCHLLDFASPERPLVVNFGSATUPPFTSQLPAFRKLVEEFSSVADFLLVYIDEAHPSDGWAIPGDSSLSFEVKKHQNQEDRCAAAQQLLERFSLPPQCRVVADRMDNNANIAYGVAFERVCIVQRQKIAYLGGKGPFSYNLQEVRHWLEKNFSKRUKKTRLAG
# [9] = target: T2, DIO3 (Homo sapiens, UniProt P55073); conditions: cited from earlier work
# T2 sequence (P55073 1-304): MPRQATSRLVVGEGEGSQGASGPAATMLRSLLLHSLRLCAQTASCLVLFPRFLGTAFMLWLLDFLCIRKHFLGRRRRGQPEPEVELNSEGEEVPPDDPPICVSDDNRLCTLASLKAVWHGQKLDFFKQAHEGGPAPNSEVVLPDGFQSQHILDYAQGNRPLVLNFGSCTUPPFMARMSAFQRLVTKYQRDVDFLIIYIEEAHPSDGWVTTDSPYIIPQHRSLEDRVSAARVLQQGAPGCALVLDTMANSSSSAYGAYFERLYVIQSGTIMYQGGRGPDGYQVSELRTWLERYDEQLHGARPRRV
smiles,measurement,setting,value
"O=C1C(Br)=C(Br)C(=O)N1Cc1ccccc1 [B, 2,3-dibromo-N-benzylmaleimide]",inhibition of the deiodinase activity (deiodination of T4) of DIO3 mimic compound A,[1],inhibit
O=C(O)C(Cc1ccc(O)cc1)N1C(=O)C(Br)=C(Br)C1=O (stereo not shown) [Compound 3],reaction with the DIO3 mimic,[1],react stoichiometrically
same,inhibition of the deiodinase activity (deiodination of T4) of DIO3 mimic compound A,[1],Inhibition
same,IC50 for inhibiting the DIO3 mimic,[1],micromolar range
same,solubility in water,[2],more soluble in water
same,cell viability,[3],low reduction in viability
O=C(O)c1ccc(N2C(=O)C(Br)=C(Br)C2=O)cc1 [Compound 4],reaction with the DIO3 mimic,[1],react stoichiometrically
same,IC50 for inhibiting the DIO3 mimic,[1],micromolar range
same,cell viability,[3],No effect
O=C(O)C(Cc1cc(I)c(O)c(I)c1)N1C(=O)C(Br)=C(Br)C1=O (stereo not shown) [Compound 5],cell density and cell morphology,[4],marked reduction in cell density and deformed cell morphology
same,latency to feed in the novelty suppressed feeding test,[5],reduced latency to feed
same,change in brain free T3 levels (in words),"[6]; ICV 3 weeks, vs. vehicle",not significantly increased
same,"Serum Free T3, Mean",[6],12.33 pg/mL
same,"Serum Free T4, Mean",[6],37.00 ng/mL
same,"Brain Free T3, Mean",[6],81.98 pg/mL
same,"Brain Free T4, Mean",[6],262.86 ng/mL
same,cell viability,[3],significant reduction in cell viability
CCC(Cc1c(I)cc(I)c(N2C(=O)C(Br)=C(Br)C2=O)c1I)C(=O)O (stereo not shown) [Compound 6],latency to feed in the novelty suppressed feeding test,[5],reduced latency to feed
same,increase in brain free T3 levels,"[6]; ICV 3 weeks, vs. vehicle",about 46%
same,change in brain free T3 levels (in words),"[6]; ICV 3 weeks, vs. vehicle",significant increase
same,"Serum Free T3, Mean",[6],12.23 pg/mL
same,"Serum Free T4, Mean",[6],35.75 ng/mL
same,"Brain Free T3, Mean",[6],84.30 pg/mL
same,"Brain Free T4, Mean",[6],244.11 ng/mL
same,cell viability,[3],low reduction in viability
O=C1C(Br)=C(Br)C(=O)N1CCc1ccc(O)c(O)c1 [Compound 7],cell density and cell morphology,[4],marked reduction in cell density and deformed cell morphology
same,cell viability,[3],significant reduction in cell viability
O=C(O)CC(C(=O)O)N1C(=O)C(Br)=C(Br)C1=O (stereo not shown) [Compound 8],cell density and cell morphology,[4],marked reduction in cell density and deformed cell morphology
same,cell viability,[3],significant reduction in cell viability
"CN1C(=O)C(Br)=C(Br)C1=O [Compound C, 2,3-dibromo-N-methylmaleimide]",inhibition of the deiodinase activity (deiodination of T4) of DIO3 mimic compound A,[1],inhibit; also recorded: Inhibition
"O=C(O)CI [IAA, iodoacetic acid]",inhibition of DIO1,[7],inhibitor
same,inhibition of DIO2,[8],cannot inhibit
same,inhibition of DIO3,[9],cannot inhibit
"Cn1cc[nH]c1=S [MMI, 1-methyl-3H-imidazole-2-thione, reference compound]",inhibition of the deiodinase activity (deiodination of T4) of DIO3 mimic compound A,[1],no inhibition
"Cc1cc(=O)[nH]c(=S)[nH]1 [MTU, 6-methyl-2-thiouracil]",inhibition of DIO1,[7],inhibit
same,inhibition of the deiodinase activity (deiodination of T4) of DIO3 mimic compound A,[1],no inhibition
same,inhibition of DIO3,[9],do not inhibit
"CCCc1cc(=O)[nH]c(=S)[nH]1 [PTU, 6-n-propyl-2-thiouracil]",inhibition of DIO1,[7],inhibit
same,inhibition of the deiodinase activity (deiodination of T4) of DIO3 mimic compound A,[1],no inhibition
same,inhibition of DIO3,[9],do not inhibit
